Entries after “also recorded” stand apart in the source; their conditions may differ. Read-outs that look alike come from different tables or passages of the source.
Tests used:
[1] = biological target: MvitGOBP1 (Maruca vitrata, UniProt A0A0S1S6H9); test: Fluorescence competitive binding assay (1-NPN displacement) with recombinant MvitGOBP1
Method: (§1) Fluorescence binding activity was determined as described by previous study. Emission fluorescence spectra were recorded on a Hitachi F-4500 at 25°C in a right angle configuration, with a 1 cm light path quartz cuvette and 5 nm slits for both excitation and emission. The protein was dissolved in 20 mM Tris-HCl buffer, pH 7.4, and ligands were added as 1 mM methanol solutions. To measure the affinity of the fluorescent ligand 1-NPN to MvitGOBP1-2, a 2 μM protein solution in 20 mM Tris-HCl (pH 7.4) was titrated with aliquots of […] ligand in methanol to final concentrations of 2–16 μM. The probe was excited at 337 nm and emission spectra were recorded between 380 and 450 nm. The affinities of the other ligands were measured in competitive binding assays, where a solution of the protein and 1-NPN, both at a concentration of 2 μM, was titrated with 1 mM methanol solutions of each competitor over concentration ranges of 2–24 μM, depending on the ligand. The dissociation constant for 1-NPN and the stoichiometry of binding were obtained by processing the data using Prism software. Dissociation constants of the competitors were calculated from the corresponding IC50 values (concentrations of ligands halving the initial fluorescence value of 1-NPN), using the equation: Ki = [IC50] / (1 + [1-NPN] / K1-NPN), where [1-NPN] is the free concentration of 1-NPN and K1-NPN is the dissociation constant of the complex protein/1-NPN.

[2] = biological target: MvitGOBP2 (Maruca vitrata, UniProt A0A088MJX9); test: Fluorescence competitive binding assay (1-NPN displacement) with recombinant MvitGOBP2; conditions: for binding ability to MvitGOBP2 (in words): among the 17 tested compounds
Method: as §1

[3] = tested on: antennae of Maruca vitrata females; test: GC-EAD: antennal response of female moths to floral volatiles; conditions: volatiles of V. unguiculata flower buds/flowers
Method: Headspace collections were initially analyzed by an Agilent Technologies 7890A GC with a flame ionization detector (FID) coupled with an electroantennogram detector (Syntech, Hilversum, The Netherlands) followed the procedures as described by with some modifications. The column was kept at 50°C for 1 min, increased to 200°C at a rate of 10°C/min and then increased to 240°C at a rate of 5°C/min, which was maintained for 5 min. The outlet of the GC column was split with a specific Electronic Pressure Control splitter (Agilent) to obtain the requested flow accuracy in a ratio of 1: 3 for the FID and the cut antenna. Volatile compounds eluting from the GC column were led to the mounted antenna through a heated (230°C) transfer line (TC-02, Syntech, Hilversum, the Netherlands). Each antenna was prepared by cutting both distal and basic segments and was immediately mounted on the holder using conductive gel (Spectra® 360; Parker Laboratories, Fairfield, New Jersey, USA). Each sample was tested five times. Each tested antenna was derived from a different female and used only once. Synthetic chemicals used in the experiments were purchased from Sigma Chemical Co., J&K Scientific Ltd., Tokyo Chemical Industry Co., Sinopharm Chemical Reagent Co. and Aladdin Chemistry Co., respectively.

[4] = tested on: Maruca vitrata females; test: Field trapping experiment with volatile-baited Delta-traps; type: in vivo; conditions: 100 μl of 100 ng/μl in hexane on rubber septa, one week, six traps, Student's t-test
Method: Field trap experiments were determined as described by Wang et al. Custom-built Delta-traps with sticky inserts and rubber septa purchased from Pherobio Technology Co. Ltd. were used in the field experiments during the moth flight season in 2014. Traps were suspended from iron stakes and placed approximately 15 m apart. Key components of host-plant volatiles were prepared in hexane, and 100 μl solution (100 ng/μl) were added to rubber septa to be used as lures. Hexane was used as blank control and six trap replicates were used in the field experiment. Traps were checked everyday and the number of female moths per trap was determined for one week. Statistical analyses of trap data were used SPSS (SPSS Inc., Chicago, Illinous, U.S.A.), the significance of the differences between tested group and control group was evaluated by Student's t-test at P < 0.05 and P < 0.01.

[5] = tested on: M. vitrata females; design: method as in earlier work; conditions: cited from earlier work
[6] = dissociation constant calculated from IC50, 1-NPN competition, read-out: MvitGOBP1 Ki
[7] = ligand concentration displacing 50% of fluorescence of MvitGOBP1/1-NPN complex, protein and 1-NPN 2 μM, pH 7.4, 25°C, read-out: MvitGOBP1 IC50
[8] = '-' = exceeded 50 μM for half-maximal inhibition, read-out: MvitGOBP2 IC50 (class symbol)
[9] = dissociation constant calculated from IC50, 1-NPN competition, read-out: MvitGOBP2 Ki
[10] = ligand concentration displacing 50% of fluorescence of MvitGOBP2/1-NPN complex, protein and 1-NPN 2 μM, pH 7.4, 25°C, read-out: MvitGOBP2 IC50

Chain of MvitGOBP2 (A0A088MJX9 entry or part of it): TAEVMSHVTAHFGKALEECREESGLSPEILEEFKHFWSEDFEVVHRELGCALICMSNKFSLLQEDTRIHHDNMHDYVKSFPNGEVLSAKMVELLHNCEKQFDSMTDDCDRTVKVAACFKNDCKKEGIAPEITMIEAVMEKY
Chain of MvitGOBP1 (A0A0S1S6H9 entry or part of it): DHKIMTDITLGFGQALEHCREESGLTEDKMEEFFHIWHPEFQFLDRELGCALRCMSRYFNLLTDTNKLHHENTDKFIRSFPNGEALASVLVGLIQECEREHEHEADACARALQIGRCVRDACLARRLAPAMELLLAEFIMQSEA

| Structure (SMILES) | Ki [1, 6] [µM] | IC50 [1, 7] [µM] | Ki [2, 9] [µM] | IC50 [2, 10] [µM] | EAD/EAG response of female antennae (in words) [3] | also measured |
| --- | --- | --- | --- | --- | --- | --- |
| O=Cc1ccccc1O [Compound 7, 2-hydroxybenzaldehyde] | – | – | – | – | – | IC50 [1]: 20.8 µM; Ki [1]: 15.5 µM; IC50 [2]: 41.9 µM; Ki [2]: 22.9 µM |
| Oc1cccc2[nH]ccc12 [Compound 15, 1H-indol-4-ol] | 10.9 | 14.6 | – | – | – | IC50 [2, 8]: > 50 µM |
| CCCCCCCCOC(=O)CCC [Compound 9, Butanoic acid octyl ester] | 26.8 | 36.1 | 8.5 | 12.9 | – | binding ability to MvitGOBP2 (in words) [2]: very great bind ability; EAD/EAG response of female antennae (in words) ([3]; listed as Butanoic acid octyl ester): EAG response was weaker than other plant volatiles; EAD/EAG response of female antennae (in words) ([3]; listed as butanoic acid octyl ester): responded; female moths caught in traps vs blank lure [4]: significant difference compared with the blank lure |
| CCc1ccc(C=O)cc1 [Compound 4-ethylbenzaldehyde] | – | – | – | – | responded | – |
| CCc1ccc(C(C)=O)cc1 [Compound 10, 1-(4-ethylphenyl)-ethanone] | – | – | – | – | – | IC50 [1]: 22.9 µM; Ki [1]: 17 µM; IC50 [2]: 45 µM; Ki [2]: 29.8 µM |
| CCc1ccc(C(C)=O)cc1 [1-(4-ethylphenyl)-ethanone] | – | – | – | – | responded; also recorded: highest EAD responses | – |
| CC(=O)c1ccc(O)c(C)c1 [Compound 14, 4-hydroxy-3-methylacetophenone] | 18.3 | 24.6 | 17.1 | 25.8 | – | – |
| C=C(C)[C@H]1CC=C(C)CC1 [Compound 2, Limonene] | 13.8 | 18.6 | 29.2 | 44.1 | responded | female moths caught in traps vs blank lure ([4]; listed as Limonene): most female moths were trapped; female moths caught in traps vs blank lure ([4]; listed as limonene): significant difference compared with the blank lure; also recorded: highest trapping effect; attraction of females in wind tunnel (in words) [5]: significantly attracted many M. vitrata females; also recorded: strong behavioral activity |
| CCc1ccc(C=O)cc1 [Compound 8, 4-ethylbenzaldehyde] | 14.2 | 19.1 | 33.1 | 50 | – | – |
| CC(C=O)Cc1ccccc1 (centres unmarked) [Compound 11, 2-methyl-3-phenylpropanal] | 17.8 | 23.9 | 3.81 | 6.98 | responded; also recorded: high electrophysiological responses | binding ability to MvitGOBP2 (in words) [2]: highest bind ability; female moths caught in traps vs blank lure [4]: significant difference compared with the blank lure; attraction of females in wind tunnel (in words) [5]: attract significantly M. vitrata females |
| O=Cc1ccccc1 [Compound 5, Benzaldehyde] | – | – | – | – | responded | IC50 [1]: 22.4 µM; Ki [1]: 16.6 µM; IC50 [2]: > 50 µM |
| CC(=O)c1ccc(C)cc1C [Compound 12, 1-(2,4-Dimethylphenyl)-ethanone] | 18 | 24.2 | – | – | – | IC50 [2, 8]: > 50 µM |
| Oc1cccc2[nH]ccc12 [Compound 1H-indol-4-ol] | – | – | – | – | responded | female moths caught in traps vs blank lure [4]: significant difference compared with the blank lure; attraction of females in wind tunnel (in words) [5]: significantly attracted many M. vitrata females |
| CCc1cccc(CC)c1 [Compound 3, 1,3-diethylbenzene] | 28.8 | 38.7 | 22.4 | 33.8 | – | – |
| CCc1ccc(CC)cc1 [Compound 4, 1,4-diethylbenzene] | 19.2 | 25.8 | 27.1 | 40.9 | – | – |
| CCCCOC(=O)CCC [Compound 1, Butanoic acid butyl ester] | 12.5 | 16.8 | 29.7 | 44.8 | responded | female moths caught in traps vs blank lure [4]: significant difference compared with the blank lure |
| CCC(=O)c1ccc(CC)cc1 [Compound 13, 4-ethylpropiophenone] | 15.2 | 20.4 | 26 | 39.3 | – | – |
| Cc1cc(C)cc(C(C)(C)C)c1 [Compound 17, 1-(1,1-Dimethylethyl)-3,5-dimethylbenzene] | 16.8 | 22.6 | – | – | – | IC50 [2, 8]: > 50 µM |
| CCC(=O)c1ccc(CC)cc1 [Compound 4-ethylpropiophenone] | – | – | – | – | – | female moths caught in traps vs blank lure [4]: significant difference compared with the blank lure |
| CC(=O)c1ccc(C(C)=O)cc1 [Compound 16, 1,4-diacetyl benzene] | – | – | – | – | – | IC50 [1]: 30.5 µM; Ki [1]: 22.7 µM; IC50 [2]: 49.6 µM; Ki [2]: 32.9 µM |
| CC(=O)c1ccccc1 [Compound 6, Acetophenone] | 21.2 | 28.5 | 26.5 | 40 | – | – |
| CC(=O)c1ccc(C)cc1C [1-(2,4-Dimethylphenyl)-ethanone] | – | – | – | – | responded | – |

— article PMC4627759, “Identification of Host-Plant Volatiles and Characterization of Two Novel General Odorant-Binding Proteins from the Legume Pod Borer, Maruca vitrata Fabricius (Lepidoptera: Crambidae)” (PLoS ONE, 2015)
